How the values were obtained:
human BChE = human BChE (Homo sapiens, UniProt P06276); experiment: biochemical; format: biochemical
[1] = MTS cytotoxicity assay, 24-h exposure of liver cell line; details: human, HepG2 cells, IC50 HepG2 (cytotoxicity), tested 3 to 400 μM
human AChE = target: T1, human AChE (Homo sapiens, UniProt P22303); experiment: biochemical; format: biochemical
T1 construct: gift from Dr. Zoran Radić, Skaggs School of Pharmacy and Pharmaceutical Sciences, UCSD

HepG2 = experiment: MTS cytotoxicity assay, 24-h exposure of liver cell line; details: read-out: IC50 HepG2 (cytotoxicity), tested 3 to 400 μM

Sequence of human BChE (P06276 29-602): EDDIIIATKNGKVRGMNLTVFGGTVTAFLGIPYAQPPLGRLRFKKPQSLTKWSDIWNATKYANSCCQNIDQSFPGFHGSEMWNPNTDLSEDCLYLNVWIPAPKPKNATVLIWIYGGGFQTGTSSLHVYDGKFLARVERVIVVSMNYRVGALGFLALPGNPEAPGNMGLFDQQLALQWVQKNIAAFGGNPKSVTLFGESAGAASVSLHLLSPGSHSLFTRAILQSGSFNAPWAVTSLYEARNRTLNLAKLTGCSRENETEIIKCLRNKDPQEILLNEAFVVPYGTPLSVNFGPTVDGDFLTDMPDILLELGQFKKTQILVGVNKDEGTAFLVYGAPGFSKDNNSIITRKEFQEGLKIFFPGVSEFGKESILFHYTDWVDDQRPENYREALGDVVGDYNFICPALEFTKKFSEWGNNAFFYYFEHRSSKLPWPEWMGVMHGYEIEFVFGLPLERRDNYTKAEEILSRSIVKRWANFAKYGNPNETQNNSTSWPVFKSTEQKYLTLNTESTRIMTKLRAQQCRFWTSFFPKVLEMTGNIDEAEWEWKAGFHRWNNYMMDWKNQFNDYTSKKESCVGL
T1 sequence (P22303 32-614): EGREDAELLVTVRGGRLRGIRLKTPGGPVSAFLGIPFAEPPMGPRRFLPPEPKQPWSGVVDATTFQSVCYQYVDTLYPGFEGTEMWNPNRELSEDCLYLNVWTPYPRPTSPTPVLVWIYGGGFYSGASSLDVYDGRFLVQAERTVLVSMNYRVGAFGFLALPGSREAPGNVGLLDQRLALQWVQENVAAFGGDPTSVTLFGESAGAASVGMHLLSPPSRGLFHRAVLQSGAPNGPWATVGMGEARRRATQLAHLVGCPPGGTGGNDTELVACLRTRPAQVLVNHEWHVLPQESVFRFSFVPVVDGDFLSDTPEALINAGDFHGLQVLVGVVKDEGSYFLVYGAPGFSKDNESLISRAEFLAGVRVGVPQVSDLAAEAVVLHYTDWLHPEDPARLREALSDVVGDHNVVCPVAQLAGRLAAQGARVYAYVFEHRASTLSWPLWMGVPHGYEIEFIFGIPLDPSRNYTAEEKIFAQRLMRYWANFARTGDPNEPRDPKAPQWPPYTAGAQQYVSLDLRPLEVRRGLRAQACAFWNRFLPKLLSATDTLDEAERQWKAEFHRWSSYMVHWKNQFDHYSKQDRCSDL

SMILES | Ki (human BChE) [µM] | IC50 at 24 h [1] [µM] | Ki (human AChE) [µM] | IC50 (HepG2) [µM] | inhibition of human AChE (in words) (human AChE) | inhibition of human BChE (in words) (human BChE) | inhibition selectivity (AChE vs BChE) (human BChE)
Cc1ccc(/C=C\c2ccsc2/C=N\O)cc1 [cis,anti-18, (Z)-3-((Z)-4-methylstyryl)thiophene-2-carbaldehyde oxime] | 760 ± 122 | > 400 |  |  |  |  | 
N#Cc1ccc(/C=C\c2ccsc2/C=N\O)cc1 [cis,anti-21, 4-((Z)-2-(2-((Z)-(hydroxyimino)methyl)thiophen-3-yl)vinyl)benzonitrile] | 53 ± 10 | 182 ± 13 | 187 ± 54 |  |  |  | 
N#Cc1ccccc1/C=C\c1ccc(/C=N/O)s1 [cis,syn-5, 2-((Z)-2-(5-((E)-(hydroxyimino)methyl)thiophen-2-yl)vinyl)benzonitrile] | 17 ± 2 | ≥ 400 | 112 ± 21 |  |  |  | 
O/N=C/c1ccc(/C=C\c2ccc(Cl)cc2)o1 [cis,syn-12, (E)-5-((Z)-4-chlorostyryl)furan-2-carbaldehyde oxime] | 147 ± 37 | 226 ± 10 | 68 ± 37 |  |  |  | 
Cc1ccc(/C=C\c2ccoc2/C=N/O)cc1 [cis,syn-14, (E)-3-((Z)-4-methylstyryl)furan-2-carbaldehyde oxime] | 93 ± 30 | 182 ± 32 | 627 ± 245 |  |  |  | 
O/N=C/c1occc1/C=C\c1ccc(Cl)cc1 [cis,syn-16, (E)-3-((Z)-4-chlorostyryl)furan-2-carbaldehyde oxime] | 119 ± 44 | ≤ 100 |  | 65 ± 13 |  |  | 
N#Cc1ccc(/C=C\c2ccoc2/C=N/O)cc1 [cis,syn-17, 4-((Z)-2-(2-((E)-(hydroxyimino)methyl)furan-3-yl)vinyl)benzonitrile] |  | ≤ 100 | 544 ± 105 | 120 ± 6 |  |  | 
Cc1ccc(/C=C\c2ccsc2/C=N/O)cc1 [cis,syn-18, (E)-3-((Z)-4-methylstyryl)thiophene-2-carbaldehyde oxime] | 86 ± 32 | 269 ± 38 |  |  |  |  | 
COc1ccc(/C=C\c2csc(/C=N/O)c2)cc1 [cis,syn-19′, (E)-4-((Z)-4-methoxystyryl)thiophene-2-carbaldehyde oxime] |  | > 400 |  |  | poor inhibitors | poor inhibitors | 
N#Cc1ccc(/C=C\c2ccsc2/C=N/O)cc1 [cis,syn-21, 4-((Z)-2-(2-((E)-(hydroxyimino)methyl)thiophen-3-yl)vinyl)benzonitrile] | 59 ± 8 | ≤ 100 | 171 ± 68 | 118 ± 46 |  |  | 
ON=Cc1cn(Cc2ccc(F)cc2)nn1 [compound 1, 1-(4-fluorobenzyl)-1H-1,2,3-triazole-4-carbaldehyde oxime] | 503 ± 32 | > 400 | 271 ± 29 |  |  |  | 
ON=Cc1cn(Cc2ccc(Cl)cc2)nn1 [compound 2, 1-(4-chlorobenzyl)-1H-1,2,3-triazole-4-carbaldehyde oxime] | 24 ± 2.9 | > 400 | 267 ± 92 |  |  |  | selective BChE inhibitors
O=[N+]([O-])c1ccc(-n2cc(C=NO)nn2)cc1 [compound 3, 1-(4-nitrophenyl)-1H-1,2,3-triazole-4-carbaldehyde oxime] | 303 ± 66 | > 400 | 280 ± 30 |  |  |  | 
O/N=C\c1ccc(/C=C/c2ccccc2O)s1 [trans,anti-4, (Z)-5-((E)-2-hydroxystyryl)thiophene-2-carbaldehyde oxime] | 6.5 ± 0.5 | 191 ± 21 | 258 ± 90 |  |  |  | 
O/N=C\c1ccc(/C=C/c2ccco2)o1 [trans,anti-6, (Z)-5-((E)-2-(furan-2-yl)vinyl)furan-2-carbaldehyde oxime] | 123 ± 23 | ≥ 400 |  |  |  |  | 
Cc1ccc(/C=C/c2ccc(/C=N\O)o2)cc1 [trans,anti-10, (Z)-5-((E)-4-methylstyryl)furan-2-carbaldehyde oxime] |  | > 400 | 180 ± 40 |  |  |  | 
COc1ccc(/C=C/c2ccoc2/C=N\O)cc1 [trans,anti-15, (Z)-3-((E)-4-methoxystyryl)furan-2-carbaldehyde oxime] |  | > 400 |  |  | poor inhibitors | poor inhibitors | 
Cc1ccccc1/C=C/c1oc2ccc3ccccc3c2c1/C=N/O [trans,syn-9, (E)-2-((E)-2-methylstyryl)naphtho[2,1-b]furan-1-carbaldehyde oxime] | 303 ± 65 | > 400 | 172 ± 29 |  |  |  | 
Cc1ccc(/C=C/c2ccc(/C=N/O)o2)cc1 [trans,syn-10, (E)-5-((E)-4-methylstyryl)furan-2-carbaldehyde oxime] | 38 ± 9.8 | ≤ 100 | 111 ± 45 | 105 ± 4 |  |  | 
Cc1ccc(/C=C/c2ccoc2/C=N/O)cc1 [trans,syn-14, (E)-3-((E)-4-methylstyryl)furan-2-carbaldehyde oxime] | 122 ± 47 | > 400 |  |  |  |  | 
O/N=C/c1occc1/C=C/c1ccc(Cl)cc1 [trans,syn-16, (E)-3-((E)-4-chlorostyryl)furan-2-carbaldehyde oxime] |  | > 400 | 217 ± 160 |  |  |  | 
N#Cc1ccc(/C=C/c2ccoc2/C=N/O)cc1 [trans,syn-17, 4-((E)-2-(2-((E)-(hydroxyimino)methyl)furan-3-yl)vinyl)benzonitrile] |  | > 400 | 66 ± 24 |  |  |  | selective AChE inhibitors
Cc1ccc(/C=C/c2ccsc2/C=N/O)cc1 [trans,syn-18, (E)-3-((E)-4-methylstyryl)thiophene-2-carbaldehyde oxime] |  | > 400 | 59 ± 39 |  |  |  | selective AChE inhibitors
CCCn1cc(C=Cc2ccc(C=NO)s2)nn1 [trans-7] | 49 ± 11 | > 400 | 147 ± 43 |  |  |  | 
O=[N+]([O-])c1ccc(-n2cc(C=Cc3ccc(C=NO)s3)nn2)cc1 [trans-8, 5-(2-(1-(4-nitrophenyl)-1H-1,2,3-triazol-4-yl)vinyl)thiophene-2-carbaldehyde oxime] | 143 ± 22 | > 400 | 199 ± 38 |  |  |  | 

— paper PMC11201660 (Biomolecules, 2024)
